Tested on: H3K9me3(1–16) peptides
Assay: peptide pulldown assay
Format: binding
Conditions: 300 mM NaCl HBS-EP; Coomassie gel; n = 3 (p values 0.021, 0.008; ns 0.181)
Experimental: H3K9me3 or unmethylated H3(1–16) peptides, linked to Dynabeads MyOne streptavidin T1 (Thermo Fisher Scientific), were used in pulldown assays with eluted GST-HP1 in HBS-EP (300 mM NaCl, 10 mM HEPES KOH pH 7.4, 5 mM EDTA and 0.2% NP-40). Pulldown assays were performed in 300 mM NaCl HBS-EP as previously described. Samples were resuspended in 2 × Laemmli buffer and resolved by SDS-PAGE followed by Coomassie-blue staining. Images were quantified using ImageJ software.

HP1γR38/9A: HP1γ with alanine substitutions at amino acids 38 and 39 to mimic citrullination
binding in pulldown, in words: significantly reduced

Reference: PMC6444592, “Citrullination of HP1γ chromodomain affects association with chromatin” (Epigenetics & Chromatin, 2019)
